Laboratory results from a melting point compilation (Tetko et al.; mined from patent text by program, amines drawn as free bases though some values may be those of a salt).

Row | SMILES | melting point [°C]
1 | CCOCn1c(Nc2cc(C)cc(C)c2)c(CC)c(=O)[nH]c1=O | 175 to 176
2 | NS(=O)(=O)CC(=O)c1ccc(Cl)cc1Cl | 136 to 139
3 | CC(C)(C)OC(=O)Oc1ccc(C(C(=O)OC(c2ccccc2)c2ccccc2)N2CC(NC(=O)OCc3ccccc3)C2=O)cc1 (stereo unspecified) | 153 to 154
4 | CCc1nc2c(N)nc3cc(CCNS(C)(=O)=O)ccc3c2n1CC(C)(C)O | 149 to 152
5 | O=[N+]([O-])c1cccc(C=CC=Cc2ccccc2)c1 | 144
6 | O=C1CC2(CCCCC2Cc2ccccc2)SCCN1 (stereo unspecified) | 130 to 135
7 | Oc1ccc(C(=C(Cl)c2ccccc2)c2ccccc2)cc1 | 127 to 129
8 | CCC(=O)Oc1cc(OC)cc(OC)c1C(=O)C=Cc1ccc(C)cc1 | 156
9 | O=C1COc2ccc([N+](=O)[O-])cc2N1 | 221 to 223
10 | CCCc1nc2c(N)nc3cc(OCC(=O)N4CCOCC4)ccc3c2s1 | 200 to 203
11 | CCCCCCCN1C(=O)C2CC(c3ccc([N+](=O)[O-])cc3)(C2)C1=O | 91 to 92
12 | O=Cc1c(OCCCCC(=O)O)ccc(C(=O)O)c1O | 165 to 166
13 | CC(C)COP(C)(=O)c1ccccc1S(N)(=O)=O (stereo unspecified) | 50 to 52
14 | C[C@H](NC(=O)c1cccc(NS(=O)(=O)CC2CN(C(c3ccc(Cl)cc3)c3ccc(Cl)cc3)C2)c1)C(N)=O | 229
15 | Ic1ccc(-c2cccnc2)cc1 | 112 to 115
16 | COC(=O)C1=C(C(OC)OC)NC(C)=C(C(=O)OC(C)C)C1c1ccccc1[N+](=O)[O-] (stereo unspecified) | 143 to 145
17 | Cc1ccc(C2=NNC(=O)CC2)c(O)c1 | 210 to 211
18 | CCOC(=O)N1C(=O)OC(c2c(Cl)cccc2OC)C1=O (stereo unspecified) | 196 to 200
19 | COc1ccc(C(O)COc2ccc(C(=O)O)c(O)c2)cc1C12CC3CC(CC(C3)C1)C2 (stereo unspecified) | 178 to 179
20 | O=P(O)(O)C(F)(F)c1ccc(CNCc2ccc(C(F)(F)P(=O)(O)O)cc2)cc1 | 106 to 108

Row | SMILES | melting point [°C]
21 | CNC(=S)C1(c2cccnc2)OCCCS1 (stereo unspecified) | 194
22 | O=Cc1nn2c3c(cccc13)CCC2 | 119 to 120
23 | O=C(O)COc1ccc(C(=O)c2ccc([N+](=O)[O-])cc2)c(Cl)c1Cl | 172 to 175
24 | COC(=O)c1ccc(C(=O)O)cc1C | 134 to 136
25 | CNC(=NS(=O)(=O)C(F)(F)F)SC | 88 to 89
26 | O=c1cc(CN2CCCC2)[nH]c(=O)[nH]1 | 176 to 178
27 | CSC(N)=C(CCN1CCC(c2noc3cc(F)ccc23)CC1)[N+](=O)[O-] | 150 to 154
28 | COC(=O)c1cc(Br)cc(I)c1 | 55 to 57
29 | CNC(=C[N+](=O)[O-])NCCCOc1cccc(CCCN(C)C)c1 | 59.5 to 61
30 | CCCCc1c[nH]c2c(Br)cccc2c1=O | 172
31 | NC(c1ccccc1)C12CC(CN1Cc1ccccc1)C2 (stereo unspecified) | 63.5 to 64
32 | CCn1nc(Cc2ccc(N)cc2)oc1=O | 88 to 89
33 | Cc1nc(CCc2nc3ccc(F)cc3c(=O)n2-c2cccnc2C)cs1 | 151 to 153
34 | CN1CN(c2ccccc2)C2(CCN(CCCn3c(=O)[nH]c4ccccc43)CC2)C1=O | 186
35 | CC(C)c1nn2ccccc2c1C(O)C(C)(C)C (stereo unspecified) | 95
36 | O=C1OC(=Nc2ccc(Cl)cc2F)C2=C1CCCC2 | 81 to 84
37 | CC(C)Nc1cccnc1N1CCN(C(=O)c2ccc(C(=O)N3CCN(CCO)CC3)cc2)CC1 | 148 to 149
38 | CCC(C)(C)Nc1c(NCc2cccc(Cl)c2C)c(=O)c1=O | 236 to 237
39 | CC1(C)OCCC(=O)c2ccccc2NC1=O | 146 to 148
40 | CCCCCNS(=O)(=O)NC(=O)OCc1ccc(OCCOC)cc1Oc1ncc(C(F)(F)F)cc1Cl | 153 to 155

Row | SMILES | melting point [°C]
41 | COCCOc1ccc(COC(C)=O)c(Oc2ncc(C(F)(F)F)cc2Cl)c1 | 52.5 to 53
42 | NNc1ccc2c(c1)CCNC2=O | 158 to 160
43 | COc1ccc2c(c1)CN(Nc1ccncc1)CC2 | 188 to 189
44 | CCC(CC)c1nnc(NC)n(N)c1=O | 119 to 120
45 | COc1ccc(S(=O)(=O)N2Cc3ccsc3C[C@@H]2C(=O)O)cc1 | 110
46 | CC(=O)Nc1c(C(=O)c2cc(F)cc(F)c2)[nH]c2cc(Cl)ccc12 | 232 to 233
47 | Cc1cc(OC/C=C(\c2ccc(C#CCN3CCOCC3)cc2)c2ccc(S(C)=O)cc2)ccc1OCC(=O)O (stereo unspecified) | 137 to 142
48 | O=[N+]([O-])c1ccc(Oc2ccc(C(F)(F)F)cc2Cl)cc1SCl | 74 to 78
49 | O=C1COc2ccc(NCC(=O)N3CCC(Cc4ccc(F)cc4)CC3)cc2N1 | 220 to 223
50 | CCCCCCCCCCCCCCN(O)C(=O)N(C)C | 64 to 66
51 | CC(C)N1Cc2cc(O)ccc2N(CCN2CC=C(c3c[nH]c4cc(F)ccc34)CC2)S1(=O)=O | 80 to 82
52 | CCNC(=O)CN(C)C(=O)[C@H](C)NC(=O)CC | 149 to 151
53 | COc1cc2c(cc1C(F)(F)F)N(C(=O)Nc1ccccc1CCN(C)C)CC2 | 166 to 168
54 | O=C1c2cc([N+](=O)[O-])ccc2CC2CCCCCN12 (stereo unspecified) | 118 to 119
55 | COP(=O)(OC)C(C)C(NC(=O)OCc1ccccc1)C(=O)N[C@@H](Cc1ccccc1)[C@H](O)C(=O)N1C[C@@H](Cl)C[C@H]1C(=O)NC(C)(C)C (stereo partly specified) | 93 to 100
56 | CCOC(=O)c1ccc(CCN2CCN(C(=O)Cc3ccc(Cl)cc3)CC2)cc1 | 88 to 89
57 | CCOC(=O)C(=O)NNc1ccc(N)cc1 | 97 to 99
58 | O=C(O)c1csc(-c2ccc(Cl)cc2)n1 | 189 to 190

Now from value to molecule:

Row | melting point [°C] | SMILES
59 | 208 to 211 | CNc1nc(-c2cncc(C#Cc3cccnc3)c2)c2cc(OC)c(OC)cc2n1
60 | 45 | Clc1ccc(-n2ccc(OCc3ccccc3Br)n2)cc1
61 | 225 to 228 | N#Cc1ncn2c1nc(N1CCOCC1)c1ccccc12
62 | 292 to 294 | Nc1nc(Oc2ccc(O)cc2)nc2nc(-c3ccco3)nn12
63 | 142 to 144 | N#Cc1ccc(-c2ccc(OC(F)(F)F)c(CNC3CCN(C(=O)C(N)=O)CC3c3ccccc3)c2)c(F)c1 (stereo unspecified)
64 | 57.5 to 58 | Cn1nnnc1SCCCC(=O)c1ccccc1
65 | 307 to 308 | O=C(NCc1ccc(Cl)cc1)c1nnc2ccc(I)cc2c1O
66 | 73 | CCC1CC(=O)N(Cc2ccc(C(=O)NC3CCCC3)cc2)N=C1c1ccc(OC)c(OC2CCCC2)c1 (stereo unspecified)
67 | 141 to 143 | CCOC(=O)c1cnc2c(OC)csc2c1Nc1ccccc1C
68 | 104 to 106 | N#Cc1cc(C(F)(F)F)n(Cc2ccccc2)c1-c1ccc(Cl)cc1
69 | 152 to 154 | COc1ccc2ccn3c(C(F)(F)F)nnc3c2c1
70 | 109 to 111 | COc1cc2c(cc1OC)CN(C(=O)Cc1ccc(-c3ccccc3)cc1)CC2
71 | 206 to 210 | COc1cccc(CNC(=O)c2cc3ccccc3c(=O)[nH]2)c1
72 | 188 to 192 | COC(=O)c1ccccc1S(=O)(=O)NC(=O)Nc1ncccn1
73 | 277 | CC1(C)C(=CC=C2C(=O)c3ccccc3C2=C(C#N)C#N)N2CCc3cccc1c32
74 | > 300 | Cc1c(C=CCN)[nH]c(=O)c2c1ccc1nc(Nc3c(Cl)cccc3Cl)n(C)c12
75 | 130 to 137 | Cc1noc(NS(=O)(=O)c2ccccc2-c2ccc(-c3ncco3)cc2Cn2c(=O)oc3ccccc32)c1C
76 | 70 | COc1ccc(S(=O)(=O)N(CC(F)(F)F)c2ccc(Cl)cc2Cc2c(F)cccc2F)cc1OC
77 | 124 to 129 | Cc1nnc(-c2ccccc2F)n2nc(OCc3ncnn3C)c(-c3ccsc3)c12
78 | 130 | NC[C@@H]1CNc2cccc(-c3cc(Cl)ccc3Cl)c2O1
79 | 251 to 253 | CNC(=O)Cc1c(-c2ccccc2)nc2n(C)c3ccc(C)cc3n12
80 | 175 to 179 | CCOCc1nc2c(N)nc3ccccc3c2n1CCCCCS(=O)(=O)NC

Row | melting point [°C] | SMILES
81 | 81 to 85 | C#CCN(C(=O)c1ccccc1C(F)(F)F)S(=O)(=O)c1cccc(C)c1
82 | 134 | COc1ccc2c(c1)CN(Cc1ccccc1)CC(=O)N2
83 | 185 to 186 | Oc1cc(C(F)CBr)c2oc(-c3ccc(O)c(F)c3)nc2c1 (stereo unspecified)
84 | 104 to 108 | Cc1ccc(S(=O)(=O)OCC2Cc3cccc(-c4ccc(F)c(Cl)c4)c3O2)cc1 (stereo unspecified)
85 | 134 to 139 | CCOC(=O)C1(Sc2ccccc2)Cc2ccc(N(C)C)cc2NC1=O (stereo unspecified)
86 | 205 to 208 | O=c1nc(NC(=S)Nc2ccccc2)c(F)cn1S(=O)(=O)c1ccccc1
87 | 150 to 158 | CC(C)(Cc1cc(F)cc(F)c1)NCC(O)c1cc(OCc2ccccc2)cc2c1OCC(=O)N2 (stereo unspecified)
88 | 183 to 184 | c1ccc(COc2cccc3c2nc2n3CCCO2)cc1
89 | 95 to 95.5 | CN(C)CCC1(c2ccccc2)Cc2ccccc2C(=O)O1 (stereo unspecified)
90 | 230 | Cc1ccc2nc(C(=O)Nc3ccccn3)[nH]c2c1
91 | 259 to 260 | C=CCc1c(C)nc(C)nc1NCc1ccc(-c2ccccc2-c2nnn[nH]2)cc1
92 | 179 | CC1(C)CCCC(=Cc2ccc(Cl)cc2)C1(O)Cn1cncn1 (stereo unspecified)
93 | > 260 | O=C1c2ccc3c4cccc5cccc(c6ccc(c2c36)C(=O)N1CCO)c54
94 | 189 to 191 | CCOCc1nc2c(N)nc3ccccc3c2n1CC(C)(O)CC (stereo unspecified)
95 | 122 to 124 | Cc1ccc(/C=C/C2=CCN(Cc3ccc(Cl)cc3)CC2)cc1
96 | 123 to 124 | Cc1oc(-c2ccccc2)nc1COc1cccc(CCCC2SC(=O)NC2=O)c1 (stereo unspecified)
97 | 80 | CC(C)(C)OC(=O)c1ccc(OCCNC(=O)C2Cc3ccccc3N2S(=O)(=O)c2ccc(-c3ccc(F)cc3F)cc2)cc1 (stereo unspecified)
98 | 55 to 58 | CC1(C)c2cc(OCc3ccccc3)ccc2OC1CO (stereo unspecified)
99 | 119 to 122 | CC(=O)c1ccc(OCC(O)COc2cccc([N+](=O)[O-])c2)cc1O (stereo unspecified)
100 | 147 to 148 | COc1ccc(CCOc2cccc(-c3cccc(C(=O)O)c3)n2)cc1OC
101 | 191 to 192 | Cc1ccccc1-c1coc2cc(OCC(=O)O)cc(Cl)c2c1=O
